# Data taken from PubChem BioAssay AID248 (DTP/NCI, 2004).
# Values joined by “and” are separate entries in the source; they are usually repeats but may differ in a detail not shown here. Identical values can stand only once. Toxic doses and inconclusive results are not listed.
# Test system: L1210 leukemia ip in BDF1 mice, survival T/C
# Test: NCI In Vivo Anticancer Drug Screen. Data for tumor model L1210 Leukemia (intraperitoneal) in B6D2F1 (BDF1) mice
# Conditions: endpoint: mean survival time, higher = longer survival
# Procedure, shortened: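 Antitumor effect is assessed in tumor-bearing animals. Survival in the compound arm is compared with a vehicle-dosed control arm and expressed as their quotient.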
# [1] = dose: 100.0 mg/kg/injection, schedule: Q01DX001 (ip), vehicle: carboxymethylcellulose (CMC)
# [2] = dose: 100.0 mg/kg/injection, schedule: Q01DX009 (ip), vehicle: carboxymethylcellulose (CMC)
# [3] = dose: 200.0 mg/kg/injection, schedule: Q01DX001 (ip), vehicle: carboxymethylcellulose (CMC)
# [4] = dose: 200.0 mg/kg/injection, schedule: Q01DX009 (ip), vehicle: carboxymethylcellulose (CMC)
# [5] = dose: 400.0 mg/kg/injection, schedule: Q01DX001 (ip), vehicle: carboxymethylcellulose (CMC)
# [6] = dose: 400.0 mg/kg/injection, schedule: Q01DX009 (ip), vehicle: carboxymethylcellulose (CMC)
# [7] = dose: 200.0 mg/kg/injection, schedule: Q01DX009 (ip), vehicle: saline with Tween-80
# [8] = dose: 100.0 mg/kg/injection, schedule: Q01DX001 (ip), vehicle: saline
# [9] = dose: 200.0 mg/kg/injection, schedule: Q01DX001 (ip), vehicle: saline
smiles,measurement,setting,value
O=C(/C=C\C=C\c1ccccc1)c1ccc([N+](=O)[O-])cc1,T/C,[1],92 % of control and 89 % of control
same,T/C,[2],100 % of control and 89 % of control
same,T/C,"dose: 100.0 mg/kg/injection, schedule: Q04DX002 (ip), vehicle: gum acacia",95 % of control and 99 % of control
same,T/C,"dose: 100.0 mg/kg/injection, schedule: Q04DX003 (ip), vehicle: carboxymethylcellulose (CMC)",93 % of control and 86 % of control
same,T/C,[3],95 % of control and 89 % of control
same,T/C,[4],90 % of control
same,T/C,"dose: 200.0 mg/kg/injection, schedule: Q04DX002 (ip), vehicle: gum acacia",101 % of control and 89 % of control
same,T/C,"dose: 200.0 mg/kg/injection, schedule: Q04DX003 (ip), vehicle: carboxymethylcellulose (CMC)",86 % of control and 90 % of control
same,T/C,[5],92 % of control and 89 % of control
same,T/C,[6],96 % of control and 97 % of control
same,T/C,"dose: 400.0 mg/kg/injection, schedule: Q04DX002 (ip), vehicle: gum acacia",92 % of control and 89 % of control
same,T/C,"dose: 400.0 mg/kg/injection, schedule: Q04DX003 (ip), vehicle: carboxymethylcellulose (CMC)",90 % of control
COC(=O)c1cc(NC(=O)c2ccccc2F)cc(C(=O)OC)c1,T/C,[2],88 % of control
same,T/C,[4],90 % of control
same,T/C,[6],91 % of control
CN(C)/N=N\c1nc[nH]c1C(=O)N1CCCC1,T/C,"dose: 100.0 mg/kg/injection, schedule: Q01DX001 (ip), vehicle: saline with Tween-80",100 % of control
same,T/C,"dose: 200.0 mg/kg/injection, schedule: Q01DX001 (ip), vehicle: saline with Tween-80",105 % of control
same,T/C,[7],150 % of control and 206 % of control
same,T/C,"dose: 400.0 mg/kg/injection, schedule: Q01DX001 (ip), vehicle: saline with Tween-80",111 % of control
OCCOc1ccc(Cl)cc1Cl,T/C,"dose: 50.0 mg/kg/injection, schedule: Q01DX001 (ip), vehicle: other",101 % of control
same,T/C,"dose: 75.0 mg/kg/injection, schedule: Q01DX009 (ip), vehicle: saline with Tween-80",101 % of control
same,T/C,"dose: 100.0 mg/kg/injection, schedule: Q01DX001 (ip), vehicle: other",103 % of control
same,T/C,"dose: 150.0 mg/kg/injection, schedule: Q01DX009 (ip), vehicle: saline with Tween-80",98 % of control
same,T/C,"dose: 200.0 mg/kg/injection, schedule: Q01DX001 (ip), vehicle: other",103 % of control
same,T/C,"dose: 300.0 mg/kg/injection, schedule: Q01DX009 (ip), vehicle: saline with Tween-80",109 % of control
O=C(Cc1ccccc1)NCc1ccccc1,T/C,"dose: 25.0 mg/kg/injection, schedule: Q01DX001 (ip), vehicle: saline",97 % of control
same,T/C,"dose: 50.0 mg/kg/injection, schedule: Q01DX001 (ip), vehicle: saline",101 % of control
same,T/C,[8],104 % of control
same,T/C,[9],104 % of control
N#CCC(=O)N1CCCCC1,T/C,"dose: 50.0 mg/kg/injection, schedule: Q01DX001 (ip), vehicle: carboxymethylcellulose (CMC)",93 % of control
same,T/C,[1],93 % of control
same,T/C,[3],114 % of control
same,T/C,[5],95 % of control
CC[C@@]1(O)C[C@H](OC2CC(N(C)C)C(OC3CC(O)C(O[C@@H]4O[C@@H](C)C(=O)C=C4N)C(C)O3)C(C)O2)c2c(cc3c(c2O)C(=O)c2c(O)ccc(O)c2C3=O)[C@H]1C(=O)OC (stereo not given in full),T/C,"dose: 0.05 mg/kg/injection, schedule: Q01DX009 (ip), vehicle: suspension in saline",117 % of control
same,T/C,"dose: 0.05 mg/kg/injection, schedule: Q09DX009 (ip), vehicle: saline",104 % of control
same,T/C,"dose: 0.1 mg/kg/injection, schedule: Q05DX005 (ip), vehicle: saline",106 % of control
same,T/C,"dose: 0.1 mg/kg/injection, schedule: Q09DX009 (ip), vehicle: saline",106 % of control
same,T/C,"dose: 0.2 mg/kg/injection, schedule: Q01DX009 (ip), vehicle: suspension in saline",111 % of control
same,T/C,"dose: 0.2 mg/kg/injection, schedule: Q03DX003 (ip), vehicle: saline",118 % of control
same,T/C,"dose: 0.2 mg/kg/injection, schedule: Q05DX005 (ip), vehicle: saline",122 % of control
same,T/C,"dose: 0.2 mg/kg/injection, schedule: Q09DX009 (ip), vehicle: saline",111 % of control
same,T/C,"dose: 0.4 mg/kg/injection, schedule: Q01DX001 (ip), vehicle: saline",111 % of control
same,T/C,"dose: 0.4 mg/kg/injection, schedule: Q01DX009 (ip), vehicle: suspension in saline",100 % of control
same,T/C,"dose: 0.4 mg/kg/injection, schedule: Q03DX003 (ip), vehicle: saline",108 % of control
same,T/C,"dose: 0.8 mg/kg/injection, schedule: Q01DX001 (ip), vehicle: saline",118 % of control
same,T/C,"dose: 0.8 mg/kg/injection, schedule: Q01DX009 (ip), vehicle: suspension in saline",100 % of control
same,T/C,"dose: 1.6 mg/kg/injection, schedule: Q01DX001 (ip), vehicle: saline",113 % of control
same,T/C,"dose: 1.6 mg/kg/injection, schedule: Q05DX005 (ip), vehicle: saline",115 % of control
same,T/C,"dose: 1.6 mg/kg/injection, schedule: Q09DX009 (ip), vehicle: saline",104 % of control
same,T/C,"dose: 3.2 mg/kg/injection, schedule: Q03DX003 (ip), vehicle: saline",101 % of control
same,T/C,"dose: 3.2 mg/kg/injection, schedule: Q05DX005 (ip), vehicle: saline",118 % of control
same,T/C,"dose: 6.4 mg/kg/injection, schedule: Q03DX003 (ip), vehicle: saline",122 % of control
CC(=O)Nc1c(Br)cc2c(c1Br)C(=O)c1ccccc1-2,T/C,[1],97 % of control
same,T/C,[3],87 % of control
same,T/C,[5],97 % of control
O=C(CI)OCCCl,T/C,"dose: 12.5 mg/kg/injection, schedule: Q01DX009 (ip), vehicle: other",94 % of control
same,T/C,"dose: 25.0 mg/kg/injection, schedule: Q01DX009 (ip), vehicle: other",97 % of control
same,T/C,"dose: 50.0 mg/kg/injection, schedule: Q01DX009 (ip), vehicle: other",97 % of control
CCCCCCCCCSCC,T/C,"dose: 100.0 mg/kg/injection, schedule: Q04DX003 (ip), vehicle: saline with Tween-80",102 % of control
same,T/C,"dose: 200.0 mg/kg/injection, schedule: Q04DX003 (ip), vehicle: saline with Tween-80",96 % of control
same,T/C,"dose: 400.0 mg/kg/injection, schedule: Q04DX003 (ip), vehicle: saline with Tween-80",102 % of control
N=c1ccccn1CC(O)COc1cccc([N+](=O)[O-])c1 (stereo not given),T/C,"dose: 100.0 mg/kg/injection, schedule: Q04DX002 (ip), vehicle: other",97 % of control
same,T/C,"dose: 200.0 mg/kg/injection, schedule: Q04DX002 (ip), vehicle: other",93 % of control
O=C(Nc1ccc(NC(=O)Nc2cccc(C3=NCCCN3)c2)cc1)Nc1ccc(C2=NCCCN2)cc1,T/C,"dose: 1.25 mg/kg/injection, schedule: Q01DX Z (ip), vehicle: carboxymethylcellulose (CMC)",102 % of control
same,T/C,"dose: 2.5 mg/kg/injection, schedule: Q01DX Z (ip), vehicle: carboxymethylcellulose (CMC)",109 % of control
same,T/C,"dose: 5.0 mg/kg/injection, schedule: Q01DX Z (ip), vehicle: carboxymethylcellulose (CMC)",113 % of control
same,T/C,"dose: 8.5 mg/kg/injection, schedule: Q01DX Z (ip), vehicle: carboxymethylcellulose (CMC)",170 % of control
same,T/C,"dose: 10.0 mg/kg/injection, schedule: Q01DX Z (ip), vehicle: carboxymethylcellulose (CMC)",167 % of control
same,T/C,"dose: 15.0 mg/kg/injection, schedule: Q01DX Z (ip), vehicle: carboxymethylcellulose (CMC)",157 % of control
same,T/C,"dose: 17.0 mg/kg/injection, schedule: Q01DX Z (ip), vehicle: carboxymethylcellulose (CMC)",151 % of control
same,T/C,"dose: 50.0 mg/kg/injection, schedule: Q01DX Z (oral), vehicle: carboxymethylcellulose (CMC)",102 % of control
same,T/C,"dose: 100.0 mg/kg/injection, schedule: Q01DX Z (oral), vehicle: carboxymethylcellulose (CMC)",107 % of control
same,T/C,"dose: 200.0 mg/kg/injection, schedule: Q01DX Z (oral), vehicle: carboxymethylcellulose (CMC)",104 % of control
same,T/C,"dose: 400.0 mg/kg/injection, schedule: Q01DX Z (oral), vehicle: carboxymethylcellulose (CMC)",102 % of control
Cc1cccnc1OCC(=O)O,T/C,"dose: 100.0 mg/kg/injection, schedule: Q04DX002 (ip), vehicle: Klucel (hydroxypropylcellulose) (HPC)",101 % of control
same,T/C,"dose: 200.0 mg/kg/injection, schedule: Q04DX002 (ip), vehicle: Klucel (hydroxypropylcellulose) (HPC)",104 % of control
same,T/C,"dose: 400.0 mg/kg/injection, schedule: Q04DX002 (ip), vehicle: Klucel (hydroxypropylcellulose) (HPC)",93 % of control
Cc1ccc(C(=O)/C=C/c2cccc3ccccc23)cc1,T/C,"dose: 100.0 mg/kg/injection, schedule: Q01DX009 (ip), vehicle: saline with Tween-80",102 % of control
same,T/C,"dose: 100.0 mg/kg/injection, schedule: Q04DX002 (ip), vehicle: saline with Tween-80",97 % of control
same,T/C,[7],96 % of control
same,T/C,"dose: 200.0 mg/kg/injection, schedule: Q04DX002 (ip), vehicle: saline with Tween-80",97 % of control
same,T/C,"dose: 400.0 mg/kg/injection, schedule: Q01DX009 (ip), vehicle: saline with Tween-80",96 % of control
same,T/C,"dose: 400.0 mg/kg/injection, schedule: Q04DX002 (ip), vehicle: saline with Tween-80",94 % of control
C=COC(=O)NC(CCC(=O)OC)C(=O)O (stereo not given),T/C,[8],92 % of control
same,T/C,[9],101 % of control
